Key:
Jeko-1 tumor cells = experiment: Annexin V / 7-AAD flow cytometry of Jeko-1 tumor cells treated with TRAIL delivery systems; format: cell-based; details: camptothecin 100 nM, percentage of cells
Experimental: (§1) Briefly, 100K live Jeko-1 or Jurkat cells were plated in RPMI media containing 10% Fetal bovine serum and 1% PenStrep in 100 μL volume.
(§2) Synthetic cytotoxic cells and equivalent total molecules of soluble TRAIL were plated 8 hours post seeding of tumor cells in 100 μL total volume. Amount of soluble TRAIL per well to match the amount of microsphere or bead-bound TRAIL was calculated as follows. Assuming 150K TRAIL molecules per microsphere/bead and 1e^6 microsphere/bead per well, 1.5e^11 soluble TRAIL molecules per well were used, which was calculated to be equivalent to 23 ng soluble TRAIL per well.
(§3) Twenty-four and forty-eight hours post incubation, cells were harvested and stained with Annexin V and 7-AAD. Anti-CD19 and Anti-CD3 antibodies were used to separate Jeko-1 cells from beads and Jurkat cells from beads, respectively. While Jeko-1 cells are CD19-expressing B-cells that are TRAIL-sensitive, Jurkat cells are CD3-expressing T cells that have low-moderate sensitivity to TRAIL. Determination of stage of cell death and % apoptotic cells were determined from the gating strategy outlined in FIG. 8. Samples were plated in duplicates and all sample acquisition was performed on the Cytoflex Beckman Coulter Flow Cytometer 24 hours and 48 hours post treatment of tumor cells with treatment conditions. Data analysis was further processed on FlowJo™ v10 software.

Jurkat tumor cells = experiment: Annexin V / 7-AAD flow cytometry of Jurkat tumor cells treated with TRAIL delivery systems; format: cell-based; details: camptothecin 100 nM, percentage of cells
Experimental: as §1, §2, §3

[1] = Table 4A, Jeko-1, 24 Hrs., TRAIL equivalent to 1.5e^11 molecules per well

SMILES: CC[C@@]1(O)C(=O)OCc2c1cc1n(c2=O)Cc2cc3ccccc3nc2-1 [Camptothecin, camptothecin]
- Early Stage Apoptotic (7-AAD−/Annexin V+) (Jeko-1 tumor cells; [1]): 56.5
- Late Stage Apoptotic (7-AAD+/Annexin V+) (Jeko-1 tumor cells; [1]): 39.5
- Live Cells (7-AAD−/Annexin V−) (Jeko-1 tumor cells; [1]): 3.88
- Necrotic (7-AAD+/Annexin V−) (Jeko-1 tumor cells; [1]): 0.077
- Early Stage Apoptotic (7-AAD−/Annexin V+) (Jeko-1 tumor cells; Table 4B, Jeko-1, 48 Hrs.): 7.64
- Late Stage Apoptotic (7-AAD+/Annexin V+) (Jeko-1 tumor cells; Table 4B, Jeko-1, 48 Hrs.): 91.0
- Live Cells (7-AAD−/Annexin V−) (Jeko-1 tumor cells; Table 4B, Jeko-1, 48 Hrs.): 1.19
- Necrotic (7-AAD+/Annexin V−) (Jeko-1 tumor cells; Table 4B, Jeko-1, 48 Hrs.): 0.13
- Early Stage Apoptotic (7-AAD−/Annexin V+) (Jurkat tumor cells; Table 5A, 24 Hrs.): 59.8
- Late Stage Apoptotic (7-AAD+/Annexin V+) (Jurkat tumor cells; Table 5A, 24 Hrs.): 26.9
- Live Cells (7-AAD−/Annexin V−) (Jurkat tumor cells; Table 5A, 24 Hrs.): 13.1
- Necrotic (7-AAD+/Annexin V−) (Jurkat tumor cells; Table 5A, 24 Hrs.): 0.13
- Early Stage Apoptotic (7-AAD−/Annexin V+) (Jurkat tumor cells; Table 5B, 48 Hrs.): 25.5
- Late Stage Apoptotic (7-AAD+/Annexin V+) (Jurkat tumor cells; Table 5B, 48 Hrs.): 69.8
- Live Cells (7-AAD−/Annexin V−) (Jurkat tumor cells; Table 5B, 48 Hrs.): 3.36
- Necrotic (7-AAD+/Annexin V−) (Jurkat tumor cells; Table 5B, 48 Hrs.): 1.33

From patent US20260151504A1, “SYNTHETIC CELLS COMPRISING TNF-RELATED APOPTOSIS-INDUCING LIGAND (TRAIL) AND METHODS OF USING THE SAME” (Slingshot Biosciences, Inc., priority 2023, published 2026)
